# In patent US20100255580A1, “Differentiation of Human Embryonic Stem Cells” (LIFESCCAN, INC., priority 2007, published 2010):
# System: human embryonic stem cells (H9, H7) on MATRIGEL
# Experiment: FACS of CXCR4, DE protocol on […] (feeder-free)
# Assay type: cell-based
# Conditions: for cells expressing CXCR4 (FACS): H9 passage 54, end of the 5th day, 100 ng/ml Activin A +/− 10 ng/ml Wnt3a for 2 days
# Method: Adhered cells were removed from culture plates by five-minute incubation with TrypLE™ Express solution (Invitrogen, CA). Released cells were resuspended in human embryonic stem cell culture medium and recovered by centrifugation, followed by washing and resuspending the cells in a staining buffer consisting of 2% BSA, 0.05% sodium azide in PBS (Sigma, MO). As appropriate, the cells were Fc-receptor blocked for 15 minutes using a 0.1% γ-globulin (Sigma) solution. […] Controls included appropriate isotype matched antibodies, unstained cells, and cells stained only with secondary conjugated antibody. All incubations with antibodies were performed for 30 mins at 4° C. after which the cells were washed with the staining buffer. Samples that were stained with unconjugated primary antibodies were incubated for an additional 30 mins at 4° C. with secondary conjugated PE or -APC labeled antibodies. See Table I for a list of secondary antibodies used. Washed cells were pelleted and resuspended in the staining buffer, and the cell surface molecules were identified using a FACS Array (BD Biosciences) instrument, collecting at least 10,000 events.
# Differentiation of embryonic stem cells to definitive endoderm was carried out as previously described in Nature Biotechnology 23, 1534-1541 (December 2005). […] H9 cells were cultured on plates coated with growth factor reduced […] at a 1:30 to 1:10 dilution or on regular […] at a 1:30 to 1:10 dilution The plates were coated with […] for 1 hr at room temperature.
# At day 5, the cultures were analyzed by FACS for CXCR4, E-cadherin, CD9, and N-cadherin expression and by real time PCR for SOX-17, SOX-7, Alpha-fetal protein (AFP), CXCR4, Brychyury (Bry), gooscecoid (GSC), HNF-3 beta, and GATA4. AFP and SOX-7 are regarded as visceral endoderm markers, while GATA4, HNF-3 beta and SOX-17 represent definite endoderm markers, and GSC, Bry, and CXCR4 represent markers of primitive streak. FIG. 17 depicts the expression of CXCR4 by FACS.
# Differentiation of embryonic stem cells to definitive endoderm was carried out as previously described in Nature Biotechnology 23, 1534-1541 (December 2005). […] In all subsequent examples unless otherwise noted, this treatment regimen will be referred to as the definite endoderm (DE) protocol. In parallel, H9, H7, or H1 cells cultured on MEF feeders were also exposed to the same DE protocol outlined above.
# In some of the cultures 20 ng/ml Wnt-3a (Catalog #1324-WN-002, R&D Systems, MN), 20 ng/ml Wnt-5a (Catalog #654-WN-010, R&D Systems, MN), 25 ng/ml Wnt-7a (Catalog #3008-WN-025, R&D Systems, MN), or 25 ng/ml Wnt-5b (Catalog #3006-WN-025, R&D Systems, MN) was added throughout the five day treatment. FIG. 24 depicts phase contrast images of H9P46 definitive endoderm culture in the presence of high concentration of (a) AA or (b) AA+20 ng/ml Wnt-3a. FIG. 25 depicts the expression of CXCR4 by FACS at day 5 for H7P44, and H9P46 lines cultured on […] (1:30 dilution) and exposed to the DE protocol+Wnt-3a (FIG. 25, panels b and d) and −Wnt-3a (FIG. 25, panels a and c).
# Control cultures were not treated with Wnt-3a. FIG. 27, panel a depicts the expression of CXCR4 by FACS at day 5 in the absence of Wnt-3a, b) 10 ng/ml Wnt-3a, c) 20 ng/ml Wnt-3a and d) 50 ng/ml Wnt-3a. In the absence of Wnt-3a the expression of CXCR4 was very low. […] Real-time PCR results (FIG. 28, panel a) also confirm this finding.
# In order to confirm that the effect of Wnt-3a was through the Wnt pathway, a GSK-3 inhibitor was used to activate the downstream targets of Wnt, such as beta catenin. […] FIG. 29, panel a depicts the expression of CXCR4 by FACS at day 5 in the absence of Wnt-3a or GSK-3B inhibitor, b) +20 ng/ml Wnt-3a, c) +1000 nM GSK-3B inhibitor IX, d) +500 nM GSK-3B inhibitor IX, e) +100 nM GSK-3B inhibitor IX, f) +10 nM GSK-3B inhibitor IX, g) +100 nM GSK-3B inhibitor IX for days 1-2, and h) +10 nM GSK-3B inhibitor IX for days 1-2. […]
# [1] = H9P46-P48, 20 ng/ml Wnt-3a or 100-1000 nM GSK-3B inhibitor, day 5
compound,measurement,setting,value
"O=C1Nc2cc(Br)ccc2/C1=C1/Nc2ccccc2/C1=N\O [GSK-3B inhibitor IX, reference compound]",number of CXCR4 positive cells,[1],significantly increased
same,expression of CXCR4 (FACS),"H9P46-P48, 10 nm GSK-3B inhibitor, day 5",very low
Activin A: a member of the TGFβ superfamily; R&D Systems; Group 2 = Activin A (100 ng/ml),cells expressing CXCR4 (FACS),,1%
Wnt-3a,expression of CXCR4 (CD184) by FACS,"H7P44 and H9P46, day 5, DE protocol + 20 ng/ml Wnt-3a vs low serum plus AA",robust expression
same,number of CXCR4 positive cells,[1],significantly increased
same,number of CXCR4 positive cells,"H9P46, 10-50 ng/ml Wnt-3a with 100 ng/ml AA, day 5",significantly increased
same,cells expressing CXCR4 (FACS),,73%
